Peptide text beside a SMILES is read from it. * marks the point of attachment. Cbz = O=C(OCc1ccccc1)*
What was measured:
Assay type in all cases: cell-based
[1] = tested on: HEK293 cells which expressed the exon 1, i.e. G421T, mutation (A141S) of Omi/HtrA2; experiment: Cytotoxicity test (LDH release) using MG132; details: 3.0 μM MG132, 24 hours; A141S cells vs wild-type HEK293 cells; FIG. 8
Protocol: (§1) In order to analyze the pathogenetic relevance of the two mutations found in the Omi/HtrA2 gene, the cytotoxicity test was used to investigate whether cells which express the correspondingly genetically modified Omi/HtrA2 protein are more sensitive to cytotoxins, i.e. undergo apoptosis more frequently with corresponding exposure.
(§2) This test was carried out using the cytotoxicity detection kit (LDH) supplied by Roche. The measure of apoptosis used in this case is the lactate dehydrogenase (LDH) released from the cytosol of the apoptotic cells into the surrounding medium after contact with the toxins. This LDH in turn is determined via conversion of a tetrazolium salt into formazan, which can be measured through a change in color from yellow (tetrazolium salt) to red (formazan) using an ELISA reader at a wavelength of 490 nm. The absorption at 650 nm is measured as reference comparison. […]
(§3) In order to detect the total amount of LDH, which is related to the total number of cells per well, then 50 μl of 10% Triton X-100 solution were pipetted into each well in order to lyse the cells which were still alive. […] 100 μl of LDH assay medium were then put in each well to be measured of the 96-well plate and incubated at room temperature for 20 minutes.
(§4) After this incubation time had elapsed, the reaction was stopped by adding 50 μl of 1 N HCl (Sigma) and measured using the ELISA reader. […]

[2] = tested on: SH-SY5Y cells which stably express mutated (S141 or S399) Omi/HtrA2; experiment: Mitochondrion function test: mitochondrial membrane potential by JC-1 FACS analysis; details: 0.5 μM staurosporin, 4 hours, FIG. 9
Protocol: The mitochondrial membrane potential was measured by FACS analysis (flow cytometer) using JC-1, as marker of mitochondrial homeostasis in SH-SY5Y cells which stably express the wild-type or mutated (S141 or S399) Omi/HtrA2.
JC-1 is a green fluorescent dye which can be employed to measure the mitochondrial membrane potential. It has the property of diffusing through cellular membranes and is moreover in the form of a monomer which fluoresces green on excitation with a 488 nm laser. In intact mitochondria there is accumulation of the dye owing to the mitochondrial membrane potential, and thus JC-1 aggregates form. The aggregate now re-emits in a red fluorescent wavelength the excitation light and can thus be clearly distinguished both under a microscope and in a flow cytometer from the green fluorescent monomers. […]
In order to differentiate the cell population between green and red fluorescence and to make the adjustment in the flow cytometer, cells without JC-1, with JC-1 and cells with JC-1 treated with CCCP were used. […] It was thus possible after the staining readily to excite only the green fluorescence of the JC-1 monomers, owing to treatment with CCCP. After adjustment of the assay in the flow cytometer, the samples were then measured and evaluated. […]

[3] = tested on: HEK293 cells which expressed the exon 7, i.e. the G1195A, mutation (G399S) of Omi/HtrA2; experiment: Cytotoxicity test (LDH release) using staurosporin; details: 0.5 μM staurosporin, 6 hours; G399S cells vs wild-type HEK293 cells; FIG. 7
Protocol: as §1, §2, §3, §4

Row | SMILES | sensitivity to MG132 relative to wild-type HEK293 cells (LDH release, proportion of dead cells) [1] | decline in the mitochondrial membrane potential (ΔΨm loss) compared with wild-type cells ([2]; Omi/HtrA2 S141 cells) | decline in the mitochondrial membrane potential (ΔΨm loss) compared with wild-type cells ([2]; Omi/HtrA2 S399 cells) | sensitivity to staurosporin relative to wild-type HEK293 cells (LDH release, proportion of dead cells) [3]
1 | CC(C)C[C@@H](C=O)NC(=O)[C@H](CC(C)C)NC(=O)[C@H](CC(C)C)NC(=O)OCc1ccccc1 [MG132] (Cbz-Leu-Leu-Leu-aldehyde) | approximately 1.4 times |  |  | 
2 | CN[C@@H]1C[C@H]2O[C@@](C)([C@@H]1OC)n1c3ccccc3c3c4c(c5c6ccccc6n2c5c31)C(=O)NC4 [staurosporin] |  | distinct decline in the mitochondrial membrane potential | distinct decline in the mitochondrial membrane potential | more than five times more sensitive
